Test results reported in paper PMC7954794, “Protein context shapes the specificity of SH3 domain-mediated interactions in vivo” (Nature Communications, 2021).

Assays:
BEM1-1 = assay: DHFR-PCA on solid medium, bait BEM1-1 (Fig. 1B); type: cell-based, Saccharomyces cerevisiae; conditions: bait BEM1-1, label = prey; for medrep (log2 median colony size normalized to plate background, PCA score): 2-8 replicates; for Ratio (SH3-deleted/WT medrep): only significant differences showed, PPIs completely lost have a ratio of 0.1 and the gained PPIs 2.5
Text: (§1) Supplement 41467_2021_21873_MOESM8_ESM.xlsx, sheet "Fig1B" | column: medsize; medrep; Ratio; Score

[1] = tested on: 575 putative partners (preys) of 22 WT SH3-containing proteins; assay: DHFR-PCA on solid medium, WT and SH3-deleted baits (Fig. 1B); type: cell-based, Saccharomyces cerevisiae; parameters: key to Score: 0: SH3-independent; 1: SH3-dependent PPIs; 2: SH3-inhibited PPIs; conditions: for medrep (log2 median colony size normalized to plate background, PCA score): label = prey; for Ratio (SH3-deleted/WT medrep): only significant differences shown, PPIs completely lost have a ratio of 0.1, gained PPIs 2.5
Text: To assess the requirement of SH3 domains for PPIs in vivo, we first measured binary interactions between 22 WT SH3-containing proteins (Supplementary Fig. 1A) as baits and 575 putative partners from their interconnected signaling networks using the dihydrofolate reductase protein–fragment complementation assay (DHFR-PCA) in the budding yeast Saccharomyces cerevisiae. About 33% (202/607) of the PPIs detected were described before, mostly by direct methods (Supplementary Fig. 1B, C)[11]. We repeated the experiments with baits in which the SH3s were individually replaced with a flexible linker by genome editing (SH3 domain deletion/stuffing, Fig. 1A). The stuffer DNA sequence ([…]) codes for a small flexible poly-Gly with Ser peptide ([…]) that is inspired by previous experiments[12],[13]. About a third of the SH3-containing protein interactome is qualitatively or quantitatively SH3-dependent (171 PPIs out of 607, Fig. 1B and Supplementary Fig. 1B, C). We validated the vast majority of the quantitative changes in low-throughput experiments and excluded that this is simply due to changes in protein abundance in most cases (Supplementary Fig. 1D–G). SH3-binding motifs[14] are more frequent in the SH3-dependent PPI partners when compared to sequences from random proteins, SH3-independent PPI partners or PPI partners that are stronger or gained following SH3 deletions (p values = 1.5 × 10^−17, 0.0038 and 2.1 × 10^−08, respectively; Mann–Whitney test, one-tailed, Fig. 1C). The changes we measure are therefore enriched for PPIs that depend on the direct interactions of the domains with the PPI partners.
The complete list of strains, primers, and gRNAs used in this study can be found in Supplementary Tables 1–3. All constructed yeast strains were validated by polymerase chain reaction (PCR) and confirmed by Sanger sequencing of the locus of interest. Bait strains for the DHFR-PCA experiments were constructed as follows. The genes of interest were fused at their genomic 3′ end by replacing the stop codon with a linker ([…]), the DHFR F[1,2] followed by a smaller linker (GGGGS), a 1× FLAG tag ([…]) and the NATMX4 resistance cassette via homologous recombination (all amplified from pAG25-DHFR[1,2]-linker-FLAG). The set of 615 prey strains (DHFR F[3] fusions in the BY4742 background) were retrieved from the Yeast Protein Interactome Collection[43] with the exception of 73 that were reconstructed (Supplementary Tables 1 and 2). Knockout strains were taken from the yeast knockout collection except for ABP1, BEM1, BZZ1, and SLA1, which were reconstructed by replacing the ORFs with the NATMX4 resistance cassette by homologous recombination in the BY4741 background.
Yeast SH3 domain genomic sequences were replaced by CRISPR–Cas9 genome editing. Each SH3 domain (as defined by the SMART database V8.0 except for Ysc84 SH3 (as defined by PROSITE), see Source Data for all SH3 sequences and Supplementary Table 1 for primers used) was specifically targeted by one gRNA[46]. Yeast competent cells were co-transformed with a pCAS plasmid (Addgene plasmid 60847[47]) expressing both the gRNA of interest and Streptococcus pyogenes Cas9[46] and a donor DNA sequence (stuffer) with 60 bp homology arms surrounding the SH3 DNA sequence. The Stuffer DNA was either PCR amplified or digested from a plasmid. The stuffer DNA sequence ([…]) codes for a small flexible linker ([…]) inspired by protein linkers used in structural biology[12],[13]. This type of linker is frequently used for fusing proteins without affecting the structure of the linked proteins.
The overall DHFR-PCA pipeline is based on Tarassov et al.[43] and the procedures have also been published as a visualized protocol. The screens were performed with robotically manipulated pin tools (BM5-SC1, S&P Robotics Inc.). First, the preys were cherry-picked from 96-well plates to omnitrays in a 384 format on YPD + HPH solid media. […]

ABP1 = assay: DHFR-PCA on solid medium, bait ABP1 (Fig. 1B); type: cell-based, Saccharomyces cerevisiae; conditions: bait ABP1, label = prey; 2-4 replicates
Text: as §1

BBC1 = assay: DHFR-PCA on solid medium, bait BBC1 (Fig. 1B); type: cell-based, Saccharomyces cerevisiae; conditions: bait BBC1, label = prey; for medrep (log2 median colony size normalized to plate background, PCA score): 2-4 replicates; for Ratio (SH3-deleted/WT medrep): only significant differences showed, PPIs completely lost have a ratio of 0.1 and the gained PPIs 2.5
Text: as §1

NCK2 = NCK2 phase separation in vitro, 60 mM NaCl, Coomassie quantification (Fig. 5E); parameters: species or system mouse; conditions: Amount/Total
Description: E. coli BL21 (DE3) cells were transformed with mNCK2 constructs in the pET-30b vector and grown overnight at 37 °C in LB with 100 µg/ml kanamycin. The next day, cultures were expanded in LB with kanamycin until they reached their exponential growth phase (OD600 of around 1.0). Protein production was then induced by the addition of 1 mM IPTG (Bio Basic) and incubation at 16 °C overnight with agitation. Cultures were pelleted with a centrifugation step (3200g at 4 °C, 30 min), washed with ice-cold PBS, and pellets were kept at −80 °C. Bacteria were thawed in GST buffer (20 mM Tris-HCl pH 7.5, 0.5 M NaCl, 1 mM EDTA, and 1 mM DTT (Millipore Sigma)) with cOmplete protease inhibitors (Millipore Sigma) and disrupted with sonication. Lysates were then centrifuged at 20,000g for 20 min at 4 °C and the supernatant loaded to a GSTrap FF 1 mL column (GE Healthcare). Following a washing step with 10 mL GST–Buffer, the GST-Tagged proteins were eluted with 15 mM GSH (Bio-basic) and cleaved in a solution using purified recombinant His-tagged TEV protease (Thermo Fisher Scientific). Tag-free NCK2 proteins were further purified using a 1 ml HisTrap FF column (GE Healthcare) to remove free His-tagged GST and TEV as well as remaining impurities. The purified proteins were concentrated with Amicon 10 K filters (Millipore Sigma) and their concentration assessed using Coomassie and BCA assays (Thermo Fisher Scientific).
Purified NCK2 proteins were diluted in GST buffer to identical concentrations. At 500 mM NaCl present in this buffer, all NCK2 constructs were completely soluble. Phase transition was initiated by dilution in imidazole buffer (10 mM imidazole (Bio Basic) pH 7.0, 1 mM DTT, 1 mM EGTA (Millipore Sigma), 1 mM MgCl2, 2.5% Glycerol (Bioshop Canada), 3% Dextran (Millipore Sigma)) containing various amount of NaCl so that the final concentration of NaCl would correspond to those in Supplementary Fig. 7B. For all the other experiments, the phase transition of NCK2 proteins was assessed at 60 mM NaCl. NCK2 at 8 μg/μL (40 μg in 5 μL) was added to 35 μL imidazole buffer in a plastic 96-well plate that had first been pretreated with a 0.2% bovine serum albumin solution to reduce nonspecific binding. The plate assay was then incubated overnight (24 h) at 4 °C before imaging. Phase-contrast images of each well were acquired using a Zeiss Axio Vert.A1 inverted microscope with an LD A-Plan 40×/0.55 Ph1 objective (Zeiss) in Zen Blue software (version 2.3.69.1000). After imaging, the soluble protein fraction (supernatant) was recovered for sodium dodecyl sulfate polyacrylamide gel electrophoresis analysis. Protein droplets attached at the bottom of the well (pellet) were washed once with imidazole buffer with 60 mM NaCl and then solubilized in Laemmli buffer. The pellets to supernatant fractions were used to quantify phase transition at 60 mM NaCl (7 replicates) via Coomassie protein quantification. The involvement of weak hydrophobic interactions in NCK2 driven phase transition was assessed using 1,6-Hexanediol (Millipore Sigma) at 60 mM NaCl. Imidazole buffer containing 0%, 1%, 5%, and 10% 1,6-Hexanediol was first prepared and phase transition was initiated and analyzed as described above. Finally, the competition of SH3-2 dependent homotypic NCK2 interaction with an SH3-2 binding peptide was assessed in the presence of 5, 15, 45, 90, 150, or 300 μM PAK1 peptide ([…]) in imidazole buffer with 60 mM NaCl. The impact of PAK1 peptide addition was observed via phase contrast microscopy as described above.

[2] = bait SLA1-3, DHFR-PCA, Replicates 4 (2 for YCR009C, YDR388W, YIL033C)
[3] = bait SLA1-2, DHFR-PCA, Replicates 4 (2 for YCR009C, YDR388W)

Row | Substance | medrep (log2 median colony size normalized to plate background, PCA score) [1, 2] | Score ([1]; bait SLA1-3, label = prey) | medrep (log2 median colony size normalized to plate background, PCA score) (ABP1) | medrep (log2 median colony size normalized to plate background, PCA score) (BBC1) | Ratio (SH3-deleted/WT medrep) (BBC1) | medrep (log2 median colony size normalized to plate background, PCA score) [1, 3] | Score ([1]; bait SLA1-2, label = prey) | Ratio (SH3-deleted/WT medrep) ([1]; bait SLA1-2, label = prey) | also measured
1 | YMR026C |  |  |  |  |  |  |  |  | medrep (log2 median colony size normalized to plate background, PCA score) (BEM1-1): 3.625; Ratio (SH3-deleted/WT medrep) (BEM1-1): 2.5
2 | YFR024C-A (PKAVALYSFAGEESGDLPFRKGDVITILKKSDSQNDWWTGRVNGREGIFPANYVELV) | 4.788 | 0 | 5.192 | 1.926 | 0.1 |  |  |  | 
3 | YDR388W (ETVTALYDYQAQAAGDLSFPAGAVIEIVQRTPDVNEWWTGRYNGQQGVFPGNYVQLNK) | 1.88 | 0 | 4.711 | 1.395 | 0.1 | 1.88 | 1 | 0.1 | 
4 | YHR016C (SATPTAVALYNFAGEQPGDLAFKKGDVITILKKSDSQNDWWTGRTNGKEGIFPANYVRVS) | 3.842 | 0 | 4.9581 |  |  | 1.614 | 1 | 0.4201 | 
5 | YIL062C | 4.44 | 0 | 5.265 | 4.09 |  |  |  |  | 
6 | YOR181W | 4.865 | 0 | 4.4673 | 1.945 | 0.4732 | 2.241 | 1 | 0.4606 | 
7 | NCK2 |  |  |  |  |  |  |  |  | Ratio (NCK2; Phase Pellet, replicate 1): 0.2548; Ratio (NCK2; Phase Pellet, replicate 2): 0.3742; Ratio (NCK2; Phase Pellet, replicate 3): 0.4878; Ratio (NCK2; Phase Pellet, replicate 4): 0.2596; Ratio (NCK2; Phase Pellet, replicate 5): 0.2564; Ratio (NCK2; Phase Pellet, replicate 6): 0.2454; Ratio (NCK2; Phase Pellet, replicate 7): 0.2712; Ratio (NCK2; Phase Soluble, replicate 1): 0.7452; Ratio (NCK2; Phase Soluble, replicate 2): 0.6258; Ratio (NCK2; Phase Soluble, replicate 3): 0.5122; Ratio (NCK2; Phase Soluble, replicate 4): 0.7404; Ratio (NCK2; Phase Soluble, replicate 5): 0.7436; Ratio (NCK2; Phase Soluble, replicate 6): 0.7546; Ratio (NCK2; Phase Soluble, replicate 7): 0.7288
8 | YLR370C | 4.537 | 0 | 5.077 | 4.024 |  | 2.335 | 1 | 0.5146 | 
9 | YPR184W | 2.1199 | 0 | 3.5 |  |  | 2.1199 | 1 | 0.1 | 
10 | YJL210W |  |  |  |  |  |  |  |  | medrep (log2 median colony size normalized to plate background, PCA score) (BEM1-1): 1.8146; Ratio (SH3-deleted/WT medrep) (BEM1-1): 2.5
11 | YNL138W | 2.731 | 0 | 5.358 | 2.102 | 0.1 | 2.731 | 1 | 0.1 | 
12 | YDR265W |  |  |  |  |  |  |  |  | medrep (log2 median colony size normalized to plate background, PCA score) (BEM1-1): 2.347; Ratio (SH3-deleted/WT medrep) (BEM1-1): 2.5
13 | YER166W | 2.422 | 0 | 3.035 |  |  | 2.422 | 1 | 0.1 | 
